Values of other authors as cited in patent publication US7586020B2, “Methods for determining effects of maternal treatments on offspring” (priority 1998, dated 2009).

Tested on: (YS×VY)FI female mice
Conditions: between about 17 and 24 months of age

Structure (SMILES): Cl[C@H]1[C@H](Cl)[C@@H](Cl)[C@@H](Cl)[C@H](Cl)[C@H]1Cl [lindane]
- mortality, lindane-treated versus untreated control mice: no differences in mortality
